Among the data in patent publication US12653895B2, “Therapeutic conjugates” (Totus Medicines Inc., priority 2019, dated 2026) are Binding values, retold here.

In the assay the test system is PI3-kinase. The assay is described as follows: NanoBRET screening of ARCS in transfected HEK293 cells with washout (covalent binding to and inhibition of PI3-kinase). It counts as cell-based. The following applies: NanoBRET binding assay; key headed Percent inhibition. How it is done: Human embryonic kidney 293-H (HEK 293, Gibco 293-H, #11631017) cell lines are maintained in Dulbecco's Modified Eagle Medium, high glucose, pyruvate (DMEM, Gibco, #11995065) supplemented with 10% fetal bovine serum (FBS, Gibco, #10082147) and 1× penicillin-streptomycin (100× solution, Gibco, #15140148) at 37° C. and 5% CO2 in a water-saturated incubator. Cell are trypsinized using 0.05% or 0.25% Trypsin-EDTA solution (Trypsin-EDTA, phenol red, Gibco, #25200056 (0.25%) or #25300054). Opti-MEM media supplemented with 10% fetal bovine serum (Opti-MEM I reduced serum media, no phenol red, Gibco, #11058021) is used for culturing cells overnight for NanoBRET readout experiments.
HEK293 cells are cultivated appropriately prior to assay. The medium from cell flask is removed via aspiration, washed 1× with PBS followed by aspiration, trypsinized, and cells are allowed to dissociate from the flask. Trypsin is neutralized using growth medium and cells are pelleted via centrifugation at 200×g for 5 minutes. The medium is aspirated and the cells are resuspended into a single cell suspension using Opti-MEM I supplemented with 10% FBS. The cell density is adjusted to 2×10^5/mL in Opti-MEM I supplemented with 10% FBS in a sterile, conical tube. The cells are transfected and aliquoted directly in a 96-well plate for the NanoBRET assay the next day, and therefore, the cells are cultured overnight in Opti-MEM. The cells are also transfected in bulk and dispensed into a 96-well plate to allow cells to adhere to the plate overnight, thereby enabling washout studies.
The lipid:DNA complexes are prepared as follows:
A 10 μg/mL solution of DNA is prepared in Opti-MEM without serum. This solution contains the following ratios of carrier DNA and DNA encoding NanoLuc fused to the biological target. Serial dilution steps may be warranted to accurately dilute the NanoLuc fusion DNA. Added, in order, the following reagents to a sterile polystyrene test tube: 1 mL of Opti-MEM without phenol red; 9.0 μg/mL of carrier DNA; 1.0 μg/mL of NanoLuc fusion DNA (for some targets, the amount is less). The reagents are mixed thoroughly.
30 μL of FuGENE HD is added into each mL of DNA mixture to form lipid:DNA complex. […] It is mixed by pipetting up and down 5-10 times and incubated at room temperature for 20 minutes to allow complexes to form. 1 part (e.g. 1 mL) of lipid:DNA complex is mixed with 20 parts (e.g. 20 mL) of HEK293 cells in suspension at 2×10^5/mL and mixed gently by pipetting up and down 5 times in a sterile, conical tube. Larger or smaller bulk transfections are scaled accordingly, using this ratio. […] is dispensed into a sterile, tissue-culture treated 96-well plate (20,000 cells/well), and incubated at least 16 hours to allow expression. The cells are incubated in a 37° C.+5% CO2 incubator for >16 hrs. A serially diluted inhibitor or test compound is prepared at 100× final concentration in 100% DMSO. The serially diluted inhibitor stock is prepared in PCR plates. 1 μL per well of 100× serially diluted inhibitor/test compound is added to the cells in 96-well plates that have been transiently transfected overnight and mixed by tapping the plate by hand. The plate is incubated at 37° C.+5% CO2 incubator overnight. A 1× solution of substrate mix (500× stock) and appropriate concentration of tracer is prepared in Opti-Mem. The cells are washed by setting a plate washer to the 96 well plate 5× in PBS pH 7.4 by adding 200 μL PBS each time. The cells are incubated at 37° C. for 2 hours. […], of the 1× Substrate-Tracer solution is added and the 96 well plate is gently tapped to mix. The plate on plate reader is read every hour for the next 6 hours. The binding assays of some ARCS are shown below. Compound 1-XXXII formed a covalent bond with PI3-kinase from about 5% to 20%. ARCS selected from the group consisting of Compounds 1-101, 1-102, 1-113, 1-114, 1-119, 1-120, 1-125 and 1-126 formed a covalent bond with PI3-kinase from about 80% to 100%. […]
(In general: In BRET a luciferase serves as donor, and the signal depends on an acceptor being close.)

Molecules are shown by their SMILES.

As for `C=CC(=O)NCC(=O)N1CCN(Cc2cc3c(N4CCOCC4)nc(-c4cnc(NC(=O)OC)cc4C(F)(F)F)nn3c2)CC1` [Compound 1-102], the Binding result is reported as “+++ (>80%)”.
As to `CC#CC(=O)NCC(=O)N1CCN(Cc2cc3c(N4CCOCC4)nc(-c4cnc(NC(=O)OC)cc4C(F)(F)F)nn3c2)CC1` [Compound 1-126], the Binding entry was “+++ (>80%)”.
Next, `COC(=O)Nc1cc(C(F)(F)F)c(-c2nc(N3CCOCC3)c3cc(CN4CCN(C(=O)CNC(=O)C=C(C)C)CC4)cn3n2)cn1` [Compound 1-114]: “+++ (>80%)”; `COC(=O)Nc1cc(C(F)(F)F)c(-c2nc(N3CCOCC3)c3cc(CN4CCN(C(=O)CCC(=O)/C=C/CN(C)C)CC4)cn3n2)cn1` [Compound 1-119]: “+++ (>80%)”; `CC#CC(=O)CCC(=O)N1CCN(Cc2cc3c(N4CCOCC4)nc(-c4cnc(NC(=O)OC)cc4C(F)(F)F)nn3c2)CC1` [Compound 1-125]: “+++ (>80%)”.
Consider `COC(=O)Nc1cc(C(F)(F)F)c(-c2nc(N3CCOCC3)c3cc(CN4CCN(C(=O)CNC(=O)/C=C/CN(C)C)CC4)cn3n2)cn1` [Compound 1-120], for which the Binding entry is on record as “+++ (>80%)”.
Then `C=CC(=O)Nc1ccc(C(=O)N2CCN(Cc3cc4c(N5CCOCC5)nc(-c5cnc(NC(=O)OC)cc5C(F)(F)F)nn4c3)CC2)cc1` [Compound 1-171], with “++ (50-80%)”; and `COC(=O)Nc1cc(C(F)(F)F)c(-c2nc(N3CCOCC3)c3cc(CN4CCN(C(=O)CCC(=O)C=C(C)C)CC4)cn3n2)cn1` [Compound 1-113], with “+++ (>80%)”; and `C=CC(=O)CCC(=O)N1CCN(Cc2cc3c(N4CCOCC4)nc(-c4cnc(NC(=O)OC)cc4C(F)(F)F)nn3c2)CC1` [Compound 1-101], with “+++ (>80%)”.
Next, `C=CC(=O)Nc1ccc(CCNCc2cc3c(N4CCOCC4)nc(-c4cnc(NC(=O)OC)cc4C(F)(F)F)nn3c2)cc1` [Compound 1-172]: “++ (50-80%)”.
